Experimental data from paper PMC6409085, “Three odorant-binding proteins are involved in the behavioral response of Sogatella furcifera to rice plant volatiles” (PeerJ, 2019).
“And” between values parts separate entries of the source, which are not always exact repeats. Equal entries are not always repeated.

How the values were obtained:
[1] = biological target: SfurOBP1 (Sogatella furcifera, UniProt V5T8N5); experiment: biochemical; type: binding; conditions: for Fluorescence competitive binding assay, fluorescence intensity: OBP1, three replicate columns
Sequence of SfurOBP1 (V5T8N5 entry or part of it): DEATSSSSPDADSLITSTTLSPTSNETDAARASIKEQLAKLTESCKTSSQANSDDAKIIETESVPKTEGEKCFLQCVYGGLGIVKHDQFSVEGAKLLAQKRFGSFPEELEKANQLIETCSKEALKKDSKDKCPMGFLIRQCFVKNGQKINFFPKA
Outline: (§1)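 1-NPN displacement assay with odorant competitor at 2–20 µM; protein and probe both 2.0 µM at pH 7.4. Ki is calculated from IC50 using the protein/1-NPN dissociation constant.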

[2] = biological target: SfurOBP11 (Sogatella furcifera, UniProt V5T6E3); experiment: biochemical; type: binding
Sequence of SfurOBP11 (V5T6E3 entry or part of it): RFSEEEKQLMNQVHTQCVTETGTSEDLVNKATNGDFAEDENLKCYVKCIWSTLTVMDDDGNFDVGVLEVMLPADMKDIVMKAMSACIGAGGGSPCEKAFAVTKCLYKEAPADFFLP
Outline: as §1

[3] = biological target: SfurOBP2 (Sogatella furcifera, UniProt V5T759); experiment: biochemical; type: binding
Sequence of SfurOBP2 (V5T759 entry or part of it): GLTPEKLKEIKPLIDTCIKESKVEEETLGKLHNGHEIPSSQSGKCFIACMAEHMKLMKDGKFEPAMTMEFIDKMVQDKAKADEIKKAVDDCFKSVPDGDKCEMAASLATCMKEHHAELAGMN
Outline: as §1

[4] = biological target: SfurOBP3 (Sogatella furcifera, UniProt V5T818); experiment: biochemical; type: binding; conditions: for Fluorescence competitive binding assay, fluorescence intensity: OBP3, three replicate columns
Sequence of SfurOBP3 (V5T818 entry or part of it): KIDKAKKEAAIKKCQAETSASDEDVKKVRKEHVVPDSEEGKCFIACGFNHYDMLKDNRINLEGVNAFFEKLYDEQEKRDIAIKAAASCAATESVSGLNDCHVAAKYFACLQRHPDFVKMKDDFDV
Outline: as §1

[5] = test system: S. furcifera adults; experiment: Y-tube olfactometer behavioral trials; type: in vivo, Sogatella furcifera; conditions: odorant 50 µL/L vs hexane; adults
Outline: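 Single S. furcifera adults (2 days post-emergence, starved 0.5 h) chose between odorant (100 µL of 50 µL/L on filter paper) and hexane control in a glass Y-tube, charcoal-filtered humidified air 300 mL/min per arm, 25 ± 1 °C, 50% RH. Choice scored if insect passed half an arm and stayed >1 min within 10 min; 45 insects per compound, chi-squared test.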

CCCCCCCCCCCCCC [n-tetradecane]
Fluorescence competitive binding assay, fluorescence intensity ([1]; ligand concentration 2 (μM)): 6022 and 9475 and 7407
Fluorescence competitive binding assay, fluorescence intensity ([1]; ligand concentration 4 (μM)): 7163 and 8831 and 6832
Fluorescence competitive binding assay, fluorescence intensity ([1]; ligand concentration 6 (μM)): 9235 and 7734 and 8738
Fluorescence competitive binding assay, fluorescence intensity ([1]; ligand concentration 8 (μM)): 7490 and 9773 and 9402
Fluorescence competitive binding assay, fluorescence intensity ([1]; ligand concentration 10 (μM)): 10034 and 9701 and 9801
Fluorescence competitive binding assay, fluorescence intensity ([1]; ligand concentration 12 (μM)): 16511 and 14895 and 12657
Fluorescence competitive binding assay, fluorescence intensity ([1]; ligand concentration 14 (μM)): 9553 and 12263 and 10210
Fluorescence competitive binding assay, fluorescence intensity ([1]; ligand concentration 16 (μM)): 10515 and 10611 and 10617
Fluorescence competitive binding assay, fluorescence intensity ([1]; ligand concentration 18 (μM)): 11876 and 13682 and 11119
Fluorescence competitive binding assay, fluorescence intensity ([1]; ligand concentration 20 (μM)): 17922 and 11049 and 10258
IC50 ([1]; SfurOBP1, protein and 1-NPN both 2.0 µM, competitor 2-20 µM, read-out: IC50): > 20 µM
IC50 ([2]; SfurOBP11, protein and 1-NPN both 2.0 µM, competitor 2-20 µM, read-out: IC50): > 20 µM
Fluorescence intensity, fluorescence competitive binding assay, OBP11 ([2]; ligand concentration 2, replicate 1): 29943
Fluorescence intensity, fluorescence competitive binding assay, OBP11 ([2]; ligand concentration 2, replicate 2): 27499
Fluorescence intensity, fluorescence competitive binding assay, OBP11 ([2]; ligand concentration 2, replicate 3): 28054
Fluorescence intensity, fluorescence competitive binding assay, OBP11 ([2]; ligand concentration 4, replicate 1): 30256
Fluorescence intensity, fluorescence competitive binding assay, OBP11 ([2]; ligand concentration 4, replicate 2): 30866
Fluorescence intensity, fluorescence competitive binding assay, OBP11 ([2]; ligand concentration 4, replicate 3): 29645
Fluorescence intensity, fluorescence competitive binding assay, OBP11 ([2]; ligand concentration 6, replicate 1): 26462
Fluorescence intensity, fluorescence competitive binding assay, OBP11 ([2]; ligand concentration 6, replicate 2): 29047
Fluorescence intensity, fluorescence competitive binding assay, OBP11 ([2]; ligand concentration 6, replicate 3): 31220
Fluorescence intensity, fluorescence competitive binding assay, OBP11 ([2]; ligand concentration 8, replicate 1): 26278
Fluorescence intensity, fluorescence competitive binding assay, OBP11 ([2]; ligand concentration 8, replicate 2): 28884
Fluorescence intensity, fluorescence competitive binding assay, OBP11 ([2]; ligand concentration 8, replicate 3): 31318
Fluorescence intensity, fluorescence competitive binding assay, OBP11 ([2]; ligand concentration 10, replicate 1): 27323
Fluorescence intensity, fluorescence competitive binding assay, OBP11 ([2]; ligand concentration 10, replicate 2): 28751
Fluorescence intensity, fluorescence competitive binding assay, OBP11 ([2]; ligand concentration 10, replicate 3): 30741
Fluorescence intensity, fluorescence competitive binding assay, OBP11 ([2]; ligand concentration 12, replicate 1): 30511
Fluorescence intensity, fluorescence competitive binding assay, OBP11 ([2]; ligand concentration 12, replicate 2): 30637
Fluorescence intensity, fluorescence competitive binding assay, OBP11 ([2]; ligand concentration 12, replicate 3): 30384
Fluorescence intensity, fluorescence competitive binding assay, OBP11 ([2]; ligand concentration 14, replicate 1): 29980
Fluorescence intensity, fluorescence competitive binding assay, OBP11 ([2]; ligand concentration 14, replicate 2): 30187
Fluorescence intensity, fluorescence competitive binding assay, OBP11 ([2]; ligand concentration 14, replicate 3): 31537
Fluorescence intensity, fluorescence competitive binding assay, OBP11 ([2]; ligand concentration 16, replicate 1): 25150
Fluorescence intensity, fluorescence competitive binding assay, OBP11 ([2]; ligand concentration 16, replicate 2): 28430
Fluorescence intensity, fluorescence competitive binding assay, OBP11 ([2]; ligand concentration 16, replicate 3): 29261
Fluorescence intensity, fluorescence competitive binding assay, OBP11 ([2]; ligand concentration 18, replicate 1): 33050
Fluorescence intensity, fluorescence competitive binding assay, OBP11 ([2]; ligand concentration 18, replicate 2): 34724
Fluorescence intensity, fluorescence competitive binding assay, OBP11 ([2]; ligand concentration 18, replicate 3): 33545
Fluorescence intensity, fluorescence competitive binding assay, OBP11 ([2]; ligand concentration 20, replicate 1): 33953
Fluorescence intensity, fluorescence competitive binding assay, OBP11 ([2]; ligand concentration 20, replicate 2): 35669
Fluorescence intensity, fluorescence competitive binding assay, OBP11 ([2]; ligand concentration 20, replicate 3): 33542
IC50 ([3]; SfurOBP2, protein and 1-NPN both 2.0 µM, competitor 2-20 µM, read-out: IC50): > 20 µM
Fluorescence competitive binding assay, OBP2 (raw fluorescence reading) ([3]; ligand concentration 2 (unit not given), replicate column 1 of 3): 17681
Fluorescence competitive binding assay, OBP2 (raw fluorescence reading) ([3]; ligand concentration 2 (unit not given), replicate column 2 of 3): 15844
Fluorescence competitive binding assay, OBP2 (raw fluorescence reading) ([3]; ligand concentration 2 (unit not given), replicate column 3 of 3): 16950
Fluorescence competitive binding assay, OBP2 (raw fluorescence reading) ([3]; ligand concentration 4 (unit not given), replicate column 1 of 3): 17519
Fluorescence competitive binding assay, OBP2 (raw fluorescence reading) ([3]; ligand concentration 4 (unit not given), replicate column 2 of 3): 20288
Fluorescence competitive binding assay, OBP2 (raw fluorescence reading) ([3]; ligand concentration 4 (unit not given), replicate column 3 of 3): 20488
Fluorescence competitive binding assay, OBP2 (raw fluorescence reading) ([3]; ligand concentration 6 (unit not given), replicate column 1 of 3): 19784
Fluorescence competitive binding assay, OBP2 (raw fluorescence reading) ([3]; ligand concentration 6 (unit not given), replicate column 2 of 3): 21064
Fluorescence competitive binding assay, OBP2 (raw fluorescence reading) ([3]; ligand concentration 6 (unit not given), replicate column 3 of 3): 19193
Fluorescence competitive binding assay, OBP2 (raw fluorescence reading) ([3]; ligand concentration 8 (unit not given), replicate column 1 of 3): 20311
Fluorescence competitive binding assay, OBP2 (raw fluorescence reading) ([3]; ligand concentration 8 (unit not given), replicate column 2 of 3): 19912
Fluorescence competitive binding assay, OBP2 (raw fluorescence reading) ([3]; ligand concentration 8 (unit not given), replicate column 3 of 3): 20694
Fluorescence competitive binding assay, OBP2 (raw fluorescence reading) ([3]; ligand concentration 10 (unit not given), replicate column 1 of 3): 21153
Fluorescence competitive binding assay, OBP2 (raw fluorescence reading) ([3]; ligand concentration 10 (unit not given), replicate column 2 of 3): 20155
Fluorescence competitive binding assay, OBP2 (raw fluorescence reading) ([3]; ligand concentration 10 (unit not given), replicate column 3 of 3): 21164
Fluorescence competitive binding assay, OBP2 (raw fluorescence reading) ([3]; ligand concentration 12 (unit not given), replicate column 1 of 3): 17882
Fluorescence competitive binding assay, OBP2 (raw fluorescence reading) ([3]; ligand concentration 12 (unit not given), replicate column 2 of 3): 20189
Fluorescence competitive binding assay, OBP2 (raw fluorescence reading) ([3]; ligand concentration 12 (unit not given), replicate column 3 of 3): 20719
Fluorescence competitive binding assay, OBP2 (raw fluorescence reading) ([3]; ligand concentration 14 (unit not given), replicate column 1 of 3): 19553
Fluorescence competitive binding assay, OBP2 (raw fluorescence reading) ([3]; ligand concentration 14 (unit not given), replicate column 2 of 3): 20680
Fluorescence competitive binding assay, OBP2 (raw fluorescence reading) ([3]; ligand concentration 14 (unit not given), replicate column 3 of 3): 20531
Fluorescence competitive binding assay, OBP2 (raw fluorescence reading) ([3]; ligand concentration 16 (unit not given), replicate column 1 of 3): 20438
Fluorescence competitive binding assay, OBP2 (raw fluorescence reading) ([3]; ligand concentration 16 (unit not given), replicate column 2 of 3): 19246
Fluorescence competitive binding assay, OBP2 (raw fluorescence reading) ([3]; ligand concentration 16 (unit not given), replicate column 3 of 3): 20069
Fluorescence competitive binding assay, OBP2 (raw fluorescence reading) ([3]; ligand concentration 18 (unit not given), replicate column 1 of 3): 24630
Fluorescence competitive binding assay, OBP2 (raw fluorescence reading) ([3]; ligand concentration 18 (unit not given), replicate column 2 of 3): 24806
Fluorescence competitive binding assay, OBP2 (raw fluorescence reading) ([3]; ligand concentration 18 (unit not given), replicate column 3 of 3): 23381
Fluorescence competitive binding assay, OBP2 (raw fluorescence reading) ([3]; ligand concentration 20 (unit not given), replicate column 1 of 3): 26164
Fluorescence competitive binding assay, OBP2 (raw fluorescence reading) ([3]; ligand concentration 20 (unit not given), replicate column 2 of 3): 20955
Fluorescence competitive binding assay, OBP2 (raw fluorescence reading) ([3]; ligand concentration 20 (unit not given), replicate column 3 of 3): 19728
Fluorescence competitive binding assay, fluorescence intensity ([4]; ligand concentration 2): 83183 and 87404 and 88774
Fluorescence competitive binding assay, fluorescence intensity ([4]; ligand concentration 4): 91510 and 89708 and 93194
Fluorescence competitive binding assay, fluorescence intensity ([4]; ligand concentration 6): 97532 and 94447 and 95269
Fluorescence competitive binding assay, fluorescence intensity ([4]; ligand concentration 8): 93074 and 89520 and 89172
Fluorescence competitive binding assay, fluorescence intensity ([4]; ligand concentration 10): 92952 and 88800 and 85833
Fluorescence competitive binding assay, fluorescence intensity ([4]; ligand concentration 12): 87947 and 90919 and 89332
Fluorescence competitive binding assay, fluorescence intensity ([4]; ligand concentration 14): 86216 and 85989 and 89098
Fluorescence competitive binding assay, fluorescence intensity ([4]; ligand concentration 16): 77694 and 82013 and 80619
Fluorescence competitive binding assay, fluorescence intensity ([4]; ligand concentration 18): 91776 and 100406 and 90755
Fluorescence competitive binding assay, fluorescence intensity ([4]; ligand concentration 20): 89755 and 85247 and 85349
IC50 ([4]; SfurOBP3, protein and 1-NPN both 2.0 µM, competitor 2-20 µM, read-out: IC50): > 20 µM
number of insects choosing hexane arm [5]: 13
number of insects choosing volatilies arm [5]: 14
number of insects failed (no choice) [5]: 13
